Columns and labels:
[1] = test system: Botrytis cinerea; experiment: In vivo preventive test on Botrytis cinerea (grey mould); details: gherkin plants, 4 to 5 days after contamination
Method: In Vivo Preventive Test on Botrytis cinerea (Grey Mould) […] Gherkin plants (“Vert petit de Paris” variety), sown in starter cups on a 50/50 peat soil pozzolana substrate and grown at 24° C., are treated at the Z11 cotyledon stage by spraying with the active ingredient prepared as described above. Plants, used as controls, are treated with the mixture of acetone/tween/DMSO/water not containing the active material. After 24 hours, the plants are contaminated by spraying the cotyledons with an aqueous suspension of cryopreserved Botrytis cinerea spores (50 000 spores per mL). The spores are suspended in a nutrient solution composed of 10 g/L of PDB, 50 g/L of D-Fructose, 2 g/L of NH4NO3 and 1 g/L of KH2PO4. The contaminated gherkin plants are incubated at 17° C. and at 90% relative humidity. Grading (% of efficacy) is carried out 4 to 5 days after the contamination, in comparison with the control plants.

[2] = log P by HPLC on a reversed-phase column (C 18), EEC Directive 79/831 Annex V.A8; type: physicochemical; details: HPLC on reversed-phase column (C 18), 40° C., 0.1% aqueous formic acid and acetonitrile, linear gradient 10% to 90% acetonitrile
Method: In table 1, the log P values were determined in accordance with EEC Directive 79/831 Annex V.A8 by HPLC (High Performance Liquid Chromatography) on a reversed-phase column (C 18), using the method described below: Temperature: 40° C.; Mobile phases: 0.1% aqueous formic acid and acetonitrile; linear gradient from 10% acetonitrile to 90% acetonitrile. Calibration was carried out using unbranched alkan-2-ones (comprising 3 to 16 carbon atoms) with known log P values (determination of the log P values by the retention times using linear interpolation between two successive alkanones). lambda-max-values were determined using UV-spectra from 200 nm to 400 nm and the peak values of the chromatographic signals.

[3] = test system: Septoria tritici; experiment: In vivo preventive test on Septoria tritici (wheat); details: wheat plants, 24 days after contamination
Method: In Vivo Preventive Test on Septoria tritici (Wheat) […] Wheat plants (“Scipion” variety), sown in starter cups on a 50/50 peat soil pozzolana substrate and grown at 22° C., are treated at the 1 leaf stage (10 cm height) by spraying with the active ingredient prepared as described above. Plants, used as controls, are treated with the mixture of acetone/tween/DMSO/water not containing the active material. After 24 hours, the plants are contaminated by spraying the leaves with an aqueous suspension of cryopreserved Septoria tritici spores (500 000 spores per mL). The contaminated wheat plants are incubated for 72 hours at 18° C. and at 100% relative humidity, and then for 21 days at 90% relative humidity. Grading (% of efficacy) is carried out 24 days after the contamination, in comparison with the control plants.

[4] = test system: Puccinia recondita; experiment: In vivo preventive test on Puccinia recondita (brown rust on wheat); details: wheat plants, 12 days after contamination
Method: In Vivo Preventive Test on Puccinia recondita (Brown Rust on Wheat) […] Wheat plants (“Scipion” variety), sown in starter cups on a 50/50 peat soil pozzolana substrate and grown at 22° C., are treated at the 1 leaf stage (10 cm height) by spraying with the active ingredient prepared as described above. Plants, used as controls, are treated with the mixture of acetone/tween/DMSO/water not containing the active material. After 24 hours, the plants are contaminated by spraying the leaves with an aqueous suspension of Puccinia recondita spores (100 000 spores per mL). The spores are collected from an infected plant and are suspended in water containing 2.5 mL/L of Tween 80 at 10%. […] Grading (% of efficacy) is carried out 12 days after the contamination, in comparison with the control plants.

[5] = test system: Uromyces appendiculatus; experiment: In vivo preventive test on Uromyces appendiculatus (bean rust); details: bean plants, 11 days after contamination
Method: In Vivo Preventive Test on Uromyces appendiculatus (Bean Rust) […] Bean plants (“Saxa” variety), sown in starter cups on a 50/50 peat soil pozzolana substrate and grown at 24° C., are treated at the 2 leaf stage (9 cm height) by spraying with the active ingredient prepared as described above. Plants, used as controls, are treated with the mixture of acetone/tween/DMSO/water not containing the active material. After 24 hours, the plants are contaminated by spraying the leaves with an aqueous suspension of Uromyces appendiculatus spores (150 000 spores per mL). The spores are collected from infected plants and are suspended in water containing 2.5 mL/L of Tween 80 at 10%. […] Grading (% of efficacy) is carried out 11 days after the contamination, in comparison with the control plants.

[6] = test system: Sphaerotheca fuliginea; experiment: In vivo preventive test on Sphaerotheca fuliginea (powdery mildew on cucurbits); details: gherkin plants, 12 days after contamination
Method: In Vivo Preventive Test on Sphaerotheca fuliginea (Powdery Mildew on Cucurbits) […] Gherkin plants (“Vert petit de Paris” variety), sown in starter cups on a 50/50 peat soil-pozzolana substrate and grown at 24° C., are treated at the Z11 cotyledon stage by spraying with the active ingredient prepared as described above. Plants, used as controls, are treated with the mixture of acetone/tween/DMSO/water not containing the active material. After 24 hours, the plants are contaminated by spraying the cotyledons with an aqueous suspension of Sphaerotheca fuliginea spores (100 000 spores per mL). The spores are collected from infected plants. […] Grading (% of efficacy) is carried out 12 days after the contamination, in comparison with the control plants.

Compound	Efficacy ([1]; 100 ppm of active ingredient)	logP [2]	Efficacy ([3]; 100 ppm of active ingredient)	Efficacy ([4]; 500 ppm of active ingredient)	Efficacy ([5]; 500 ppm of active ingredient)	Efficacy ([6]; 500 ppm of active ingredient)	Efficacy ([4]; 100 ppm of active ingredient)	Efficacy ([5]; 100 ppm of active ingredient)	Efficacy ([1]; 500 ppm of active ingredient)	Efficacy ([3]; 500 ppm of active ingredient)	Efficacy ([6]; 100 ppm of active ingredient)
Cn1cc(C(=O)N(Cc2cc(-c3cccs3)ccc2Cl)C2CC2)c(C(F)F)n1 [I.84]	100%	3.68	71%	–	–	–	–	–	–	–	–
Cn1nc(C(F)F)c(C(=O)N(Cc2ccccc2C2COC2)C2CC2)c1F [I.1]	–	1.51	–	75%	83%	93%	–	–	–	–	–
Cn1cc(C(=O)N(Cc2cc(F)ccc2C2(C)CO2)C2CC2)c(C(F)F)n1 (centres unmarked) [I.6]	–	2.53	92%	–	–	–	81%	73%	–	–	–
Cn1nc(C(F)F)c(C(=O)N(Cc2ccccc2-c2csc3ccccc23)C2CC2)c1F [I.156]	–	4.27	–	81%	–	95%	–	–	97%	96%	–
Cn1cc(-c2ccc(Cl)cc2CN(C(=O)c2c(C(F)F)nn(C)c2F)C2CC2)cn1 [I.55]	–	2.80	–	95%	99%	100%	–	–	–	95%	–
Cn1nc(C(F)F)c(C(=O)N(Cc2ccccc2Oc2nc(Cl)cc(Cl)n2)C2CC2)c1F [I.168]	–	3.50	–	81%	99%	83%	–	–	–	80%	–
CC1CC1N(Cc1ccccc1-c1ccsc1)C(=O)c1cn(C)nc1C(F)F (centres unmarked) [I.87]	–	3.48	–	75%	84%	–	–	–	–	–	–
Cn1cc(C(=O)N(Cc2ccccc2-c2ccsc2)C2CC2)c(C(F)F)n1 [I.70]	–	3.17	–	78%	96%	85%	–	–	–	86%	–
Cn1nc(C(F)F)c(C(=O)N(Cc2ccccc2-c2ccc(Cl)s2)C2CC2)c1Cl [I.141]	–	4.51	–	86%	–	–	–	–	90%	83%	–
Cc1ccc(-c2ccoc2)c(CN(C(=O)c2c(C(F)F)nn(C)c2Cl)C2CC2)c1 [I.37]	–	3.71	–	–	–	–	81%	83%	–	–	–
Cn1nc(C(F)F)c(C(=O)N(Cc2ccccc2-c2cccs2)C2CC2)c1F [I.69]	–	3.64	–	94%	100%	100%	–	–	–	97%	–
Cc1ccc(-c2cnn(C)c2)c(CN(C(=O)c2cn(C)nc2C(F)F)C2CC2)c1 [I.59]	81%	2.37	–	–	–	–	–	–	–	–	–
COc1ccsc1-c1ccc(C)cc1CN(C(=O)c1c(C(F)F)nn(C)c1F)C1CC1 [I.125]	78%	3.83	96%	–	–	–	81%	–	–	–	95%
Cn1nc(C(F)F)c(C(=O)N(Cc2ccccc2-c2cccs2)C2CC2)c1Cl [I.78]	–	3.78	–	–	85%	–	–	–	78%	83%	–
Cn1cc(-c2ccc(F)cc2CN(C(=O)c2c(C(F)F)nn(C)c2F)C2CC2)cn1 [I.56]	–	2.50	–	78%	85%	98%	–	–	–	100%	–
Cn1cc(C(=O)N(Cc2ccccc2-c2ccco2)C2CC2)c(C(F)F)n1 [I.31]	81%	2.96	–	–	–	–	–	–	–	–	–
Cn1nc(C(F)F)c(C(=O)N(Cc2ccccc2-c2ccsc2)C2CC2)c1Cl [I.76]	–	3.71	–	93%	96%	–	–	–	–	75%	–
Cc1ccc(-c2cscc2C)c(CN(C(=O)c2c(C(F)F)nn(C)c2F)C2CC2)c1 [I.108]	100%	4.25	86%	–	–	–	–	–	–	–	75%
Cn1ccc(-c2ccc(Cl)cc2CN(C(=O)c2c(C(F)F)nn(C)c2F)C2CC2)c1 [I.48]	–	3.71	–	75%	96%	–	–	–	–	86%	–
Cn1nc(C(F)F)c(C(=O)N(Cc2cc(Cl)ccc2-c2csc3ccccc23)C2CC2)c1F [I.155]	–	4.74	–	75%	99%	–	–	–	–	86%	–
Cc1ccc(-c2ccsc2Cl)c(CN(C(=O)c2c(C(F)F)nn(C)c2F)C2CC2)c1 [I.150]	90%	4.26	80%	–	–	–	81%	–	–	–	100%
Cn1nc(C(F)F)c(C(=O)N(Cc2cc(-c3ccco3)ccc2Cl)C2CC2)c1Cl [I.35]	94%	4.01	–	–	–	–	–	–	–	–	–
CC(c1ccccc1-c1ccsc1)N(C(=O)c1c(C(F)F)nn(C)c1F)C1CC1 (centres unmarked) [I.82]	97%	3.78	97%	–	–	–	81%	–	–	–	98%
CC1=NOC(C)(c2ccc(C)cc2CN(C(=O)c2c(C(F)F)nn(C)c2F)C2CC2)C1 (centres unmarked) [I.111]	–	2.98	–	–	–	–	88%	100%	–	–	100%
Cn1cc(C(=O)N(Cc2cc(Cl)ccc2-c2ccc(Cl)s2)C2CC2)c(C(F)F)c1 [I.146]	–	4.85	–	–	–	–	–	–	100%	–	–

From patent US10125126B2, “N-cycloalkyl-N-[(heterocyclylphenyl)methylene]-(thio)carboxamide derivatives” (BAYER CROPSCIENCE AG, priority 2012, dated 2018)
